Data from the supplement of paper PMC4862054.

tested on: CAL-85-1; assay: normalised response (% of control), CellTox Green; higher = less cell death (100 = DMSO, 0 = benzethonium chloride kill control); settings: incubation time: 72 h
Method in brief: (§1)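 Breast cancer cell lines in 20 µl suspension were added to 384-well plates containing compound at 5 concentrations, spaced in 10-fold steps across a 10,000-fold range chosen for each compound, and incubated for 72 h. CellTox Green fluorescence was read at 485/520 nm, followed by CellTiter-Glo luminescence after 10 min at room temperature. Signals on each plate were normalised so that 0.1 % DMSO equals 100 and a positive kill control equals 0. Every value in the table is the normalised signal at one concentration of the series.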

Q: For CC[C@@]1(O)C(=O)OCc2c1cc1n(c2=O)Cc2cc3c(CN(C)C)c(O)ccc3nc2-1 [Topotecan] (100 nM), which normalised response is on record?
A: 100%

tested on: DU-4475; assay: as above; settings: incubation time: 72 h
Method in brief: as §1

Q: Which normalised response does the source give for COc1ccc(-c2cc3c(C)nc(N)nc3n([C@H]3CC[C@H](OCCO)CC3)c2=O)cn1 (1000 nM) here?
A: 86.2%

Q: How did the normalised response turn out when COc1ccc(-c2cc3c(C)nc(N)nc3n([C@H]3CC[C@H](OCCO)CC3)c2=O)cn1 (10000 nM) was run?
A: 67.2%

Q: O=C(Nc1c[nH]nc1-c1nc2ccc(CN3CCOCC3)cc2[nH]1)NC1CC1 [AT9283] (1000 nM) was tested. Which normalised response did it give?
A: 106%

Q: Which normalised response does the source give for COc1cc(CCc2cc(NC(=O)c3ccc(N4CC(C)NC(C)C4)cc3)n[nH]2)cc(OC)c1 (stereo unspecified) [AZD4547] (100 nM) here?
A: 97.8%

Q: For CO[C@@H](C(=O)N1Cc2[nH]nc(NC(=O)c3ccc(N4CCN(C)CC4)cc3)c2C1)c1ccccc1 [Danusertib] (1000 nM), which normalised response is on record?
A: 97.3%

Q: Cc1nc(Nc2ncc(C(=O)Nc3c(C)cccc3Cl)s2)cc(N2CCN(CCO)CC2)n1 [Dasatinib] (100 nM) was tested. Which normalised response did it give?
A: 102%

Q: How did the normalised response turn out when Cc1nc(Nc2ncc(C(=O)Nc3c(C)cccc3Cl)s2)cc(N2CCN(CCO)CC2)n1 [Dasatinib] (1000 nM) was run?
A: 96.6%

Q: How did the normalised response turn out when Cc1c(CN2CCN(C(=O)[C@H](C)O)CC2)sc2c(N3CCOCC3)nc(-c3cnc(N)nc3)nc12 [GDC-0980] (1000 nM) was run?
A: 98.7%

Q: For Cc1c(CN2CCN(C(=O)[C@H](C)O)CC2)sc2c(N3CCOCC3)nc(-c3cnc(N)nc3)nc12 [GDC-0980] (10000 nM), which normalised response is on record?
A: 85.5%

Q: With C[C@]12O[C@H](C[C@]1(O)CO)n1c3ccccc3c3c4c(c5c6ccccc6n2c5c31)CNC4=O [Lestaurtinib] (100 nM) as the molecule, how does the normalised response read?
A: 91.5%

Q: How did the normalised response turn out when C[C@]12O[C@H](C[C@]1(O)CO)n1c3ccccc3c3c4c(c5c6ccccc6n2c5c31)CNC4=O [Lestaurtinib] (1000 nM) was run?
A: 71.7%

Q: Which normalised response does the source give for O=C1c2c(O)ccc(O)c2C(=O)c2c(NCCNCCO)ccc(NCCNCCO)c21 [Mitoxantrone] (100 nM) here?
A: 99.1%

Q: O=C1c2c(O)ccc(O)c2C(=O)c2c(NCCNCCO)ccc(NCCNCCO)c21 [Mitoxantrone] (1000 nM) was tested. Which normalised response did it give?
A: 94.2%

Q: Which normalised response does the source give for Nc1ccccc1NC(=O)c1ccc(CNc2nccc(-c3cccnc3)n2)cc1 [Mocetinostat] (10000 nM) here?
A: 72.3%

Q: For COc1nc(N)nc2c1ncn2[C@@H]1O[C@H](CO)[C@@H](O)[C@@H]1O [Nelarabine] (10000 nM), which normalised response is on record?
A: 98.5%

Q: Cc1ccc(Nc2nccc(N(C)c3ccc4c(C)n(C)nc4c3)n2)cc1S(N)(=O)=O [Pazopanib] (1000 nM) was tested. Which normalised response did it give?
A: 100%

Q: Which normalised response does the source give for Cc1ccc(Nc2nccc(N(C)c3ccc4c(C)n(C)nc4c3)n2)cc1S(N)(=O)=O [Pazopanib] (10000 nM) here?
A: 104%

Q: With C[C@]12C=CC(=O)C=C1CC[C@@H]1[C@@H]2[C@@H](O)C[C@@]2(C)[C@H]1CC[C@]2(O)C(=O)CO [Prednisolone] (10000 nM) as the molecule, how does the normalised response read?
A: 100%

Q: Which normalised response does the source give for CNC(=O)c1cc(Oc2ccc(NC(=O)Nc3ccc(Cl)c(C(F)(F)F)c3)cc2)ccn1 [Sorafenib] (100 nM) here?
A: 99.9%

Q: How did the normalised response turn out when CNC(=O)c1cc(Oc2ccc(NC(=O)Nc3ccc(Cl)c(C(F)(F)F)c3)cc2)ccn1 [Sorafenib] (1000 nM) was run?
A: 97.7%

Q: CCN(CC)CCNC(=O)c1c(C)[nH]c(/C=C2\C(=O)Nc3ccc(F)cc32)c1C [Sunitinib] (100 nM) was tested. Which normalised response did it give?
A: 98.1%

Q: With CCN(CC)CCNC(=O)c1c(C)[nH]c(/C=C2\C(=O)Nc3ccc(F)cc32)c1C [Sunitinib] (1000 nM) as the molecule, how does the normalised response read?
A: 99.7%

Q: For CC[C@@]1(O)C(=O)OCc2c1cc1n(c2=O)Cc2cc3c(CN(C)C)c(O)ccc3nc2-1 [Topotecan] (100 nM), which normalised response is on record?
A: 94.9%

tested on: HCC1143; assay: as above; settings: incubation time: 72 h
Method in brief: as §1

Q: For COc1ccc(-c2cc3c(C)nc(N)nc3n([C@H]3CC[C@H](OCCO)CC3)c2=O)cn1 (1000 nM), which normalised response is on record?
A: 79.8%

Q: For COc1ccc(-c2cc3c(C)nc(N)nc3n([C@H]3CC[C@H](OCCO)CC3)c2=O)cn1 (10000 nM), which normalised response is on record?
A: 91.1%

Q: How did the normalised response turn out when O=C(Nc1c[nH]nc1-c1nc2ccc(CN3CCOCC3)cc2[nH]1)NC1CC1 [AT9283] (1000 nM) was run?
A: 119%

Q: Which normalised response does the source give for COc1cc(CCc2cc(NC(=O)c3ccc(N4CC(C)NC(C)C4)cc3)n[nH]2)cc(OC)c1 (stereo unspecified) [AZD4547] (100 nM) here?
A: 82%

Q: For CO[C@@H](C(=O)N1Cc2[nH]nc(NC(=O)c3ccc(N4CCN(C)CC4)cc3)c2C1)c1ccccc1 [Danusertib] (1000 nM), which normalised response is on record?
A: 66.9%

Q: How did the normalised response turn out when Cc1nc(Nc2ncc(C(=O)Nc3c(C)cccc3Cl)s2)cc(N2CCN(CCO)CC2)n1 [Dasatinib] (100 nM) was run?
A: 70.1%

Q: How did the normalised response turn out when Cc1nc(Nc2ncc(C(=O)Nc3c(C)cccc3Cl)s2)cc(N2CCN(CCO)CC2)n1 [Dasatinib] (1000 nM) was run?
A: 107%

Q: Which normalised response does the source give for Cc1c(CN2CCN(C(=O)[C@H](C)O)CC2)sc2c(N3CCOCC3)nc(-c3cnc(N)nc3)nc12 [GDC-0980] (1000 nM) here?
A: 85%

Q: Cc1c(CN2CCN(C(=O)[C@H](C)O)CC2)sc2c(N3CCOCC3)nc(-c3cnc(N)nc3)nc12 [GDC-0980] (10000 nM) was tested. Which normalised response did it give?
A: 47%

Q: For C[C@]12O[C@H](C[C@]1(O)CO)n1c3ccccc3c3c4c(c5c6ccccc6n2c5c31)CNC4=O [Lestaurtinib] (100 nM), which normalised response is on record?
A: 116%

Q: Which normalised response does the source give for C[C@]12O[C@H](C[C@]1(O)CO)n1c3ccccc3c3c4c(c5c6ccccc6n2c5c31)CNC4=O [Lestaurtinib] (1000 nM) here?
A: 73.5%

Q: O=C1c2c(O)ccc(O)c2C(=O)c2c(NCCNCCO)ccc(NCCNCCO)c21 [Mitoxantrone] (100 nM) was tested. Which normalised response did it give?
A: 109%

Q: O=C1c2c(O)ccc(O)c2C(=O)c2c(NCCNCCO)ccc(NCCNCCO)c21 [Mitoxantrone] (1000 nM) was tested. Which normalised response did it give?
A: 119%

Q: Nc1ccccc1NC(=O)c1ccc(CNc2nccc(-c3cccnc3)n2)cc1 [Mocetinostat] (10000 nM) was tested. Which normalised response did it give?
A: 63.6%

Q: For COc1nc(N)nc2c1ncn2[C@@H]1O[C@H](CO)[C@@H](O)[C@@H]1O [Nelarabine] (10000 nM), which normalised response is on record?
A: 99.1%

Q: With Cc1ccc(Nc2nccc(N(C)c3ccc4c(C)n(C)nc4c3)n2)cc1S(N)(=O)=O [Pazopanib] (1000 nM) as the molecule, how does the normalised response read?
A: 99.3%

Q: With Cc1ccc(Nc2nccc(N(C)c3ccc4c(C)n(C)nc4c3)n2)cc1S(N)(=O)=O [Pazopanib] (10000 nM) as the molecule, how does the normalised response read?
A: 55.8%

Q: For C[C@]12C=CC(=O)C=C1CC[C@@H]1[C@@H]2[C@@H](O)C[C@@]2(C)[C@H]1CC[C@]2(O)C(=O)CO [Prednisolone] (10000 nM), which normalised response is on record?
A: 51%

Q: How did the normalised response turn out when CNC(=O)c1cc(Oc2ccc(NC(=O)Nc3ccc(Cl)c(C(F)(F)F)c3)cc2)ccn1 [Sorafenib] (100 nM) was run?
A: 83.6%

Q: CNC(=O)c1cc(Oc2ccc(NC(=O)Nc3ccc(Cl)c(C(F)(F)F)c3)cc2)ccn1 [Sorafenib] (1000 nM) was tested. Which normalised response did it give?
A: 101%

Q: How did the normalised response turn out when CCN(CC)CCNC(=O)c1c(C)[nH]c(/C=C2\C(=O)Nc3ccc(F)cc32)c1C [Sunitinib] (100 nM) was run?
A: 107%

Q: With CCN(CC)CCNC(=O)c1c(C)[nH]c(/C=C2\C(=O)Nc3ccc(F)cc32)c1C [Sunitinib] (1000 nM) as the molecule, how does the normalised response read?
A: 82.8%
